Earlier results on one compound are cited in patent US11648211B2, “Nanoencapsulated combination drug formulations” (priority 2019, dated 2023).

This series relates to spontaneous breast cancer.

Like-named read-outs stand apart in the source and are kept apart here.

In the case of `Cn1ncnc1[C@H]1c2n[nH]c(=O)c3cc(F)cc(c23)N[C@@H]1c1ccc(F)cc1` [TLZ, Talazoparib], the animals with alopecia by setting is: (i.v.) 25%; (oral) 25%.
